Results from ChEMBL document CHEMBL3885881, “DrugMatrix”.

Species on record: Rattus norvegicus
Assay: DrugMatrix - Regimen: Daily Repeat
Assay type: toxicity, organism-based, Sprague-Dawley
Parameters: regimen Daily Repeat, gender Male, age 6-8 weeks
Conditions: in vivo, po, route oral GAVAGE, vehicle 100 % WATER; for ABSOLUTE BASOPHIL / ABSOLUTE EOSINOPHIL / ABSOLUTE LYMPHOCYTE / ABSOLUTE MONOCYTE / ABSOLUTE SEGMENTED NEUTROPHIL / BASOPHIL / EOSINOPHIL / ERYTHROCYTE COUNT / HEMATOCRIT / LEUKOCYTE COUNT / LYMPHOCYTE / MEAN CORPUSCULAR HEMOGLOBIN / MEAN CORPUSCULAR HEMOGLOBIN CONCENTRATION / MEAN CORPUSCULAR VOLUME / MONOCYTE / NEUTROPHIL / NUCLEATED RED BLOOD CELLS / PLATELET COUNT: tissue Blood; for ALANINE AMINOTRANSFERASE / ALBUMIN / ALKALINE PHOSPHATASE / ASPARTATE AMINOTRANSFERASE / CARBON DIOXIDE / CHLORIDE / CHOLESTEROL / CREATINE PHOSPHOKINASE / CREATININE / LIPASE / POTASSIUM / TOTAL BILIRUBIN / TOTAL PROTEIN / BLOOD UREA NITROGEN: tissue Plasma
[1] = 0 mg/kg, 72 h, dose level Control, time 3 day
[2] = 0 mg/kg, 120 h, dose level Control, time 5 day
[3] = 44 mg/kg, 72 h, dose level Low, time 3 day
[4] = 44 mg/kg, 120 h, dose level Low, time 5 day

## NC(=O)c1ncn([C@@H]2O[C@H](CO)[C@@H](O)[C@H]2O)n1 [RIBAVIRIN]
[1]
  ABSOLUTE BASOPHIL: 0 CELLS/uL
  ABSOLUTE EOSINOPHIL: 40 CELLS/uL
  ABSOLUTE LYMPHOCYTE: 13599.5 CELLS/uL
  ABSOLUTE MONOCYTE: 239.33 CELLS/uL
  ABSOLUTE SEGMENTED NEUTROPHIL: 1021.17 CELLS/uL
  BASOPHIL: 0%
  EOSINOPHIL: 0.33%
  ERYTHROCYTE COUNT: 5.71 x10E6/uL
  HEMATOCRIT: 36.35%
  LEUKOCYTE COUNT: 14.9 x10E3/uL
  LYMPHOCYTE: 91%
  MEAN CORPUSCULAR HEMOGLOBIN: 24.62 pg
  MEAN CORPUSCULAR HEMOGLOBIN CONCENTRATION: 38.65 G/DL
  MEAN CORPUSCULAR VOLUME: 63.7 fL
  MONOCYTE: 1.5%
  NEUTROPHIL: 7.17%
  NUCLEATED RED BLOOD CELLS: 0.33 /100WBC
  PLATELET COUNT: 1225.5 x10E3/uL
  ALANINE AMINOTRANSFERASE: 48.5 u/L
  ALBUMIN: 4.18 G/DL
  ALKALINE PHOSPHATASE: 390.83 u/L
  ASPARTATE AMINOTRANSFERASE: 89 u/L
  CARBON DIOXIDE: 24.83 mmol/L
  CHLORIDE: 100.83 MEQ/L
  CHOLESTEROL: 72.5 mg/dL
  CREATINE PHOSPHOKINASE: 503 u/L
  CREATININE: 0.2 mg/dL
  LIPASE: 9.83 u/L
  POTASSIUM: 6.16 MEQ/L
  TOTAL BILIRUBIN: 0.2 mg/dL
  TOTAL PROTEIN: 5.8 G/DL
[2]
  ABSOLUTE BASOPHIL: 0 CELLS/uL
  ABSOLUTE EOSINOPHIL: 21 CELLS/uL
  ABSOLUTE LYMPHOCYTE: 14288.5 CELLS/uL
  ABSOLUTE MONOCYTE: 205.33 CELLS/uL
  ABSOLUTE SEGMENTED NEUTROPHIL: 968.5 CELLS/uL
  BASOPHIL: 0%
  EOSINOPHIL: 0.17%
  ERYTHROCYTE COUNT: 5.83 x10E6/uL
  HEMATOCRIT: 36.53%
  LEUKOCYTE COUNT: 15.48 x10E3/uL
  LYMPHOCYTE: 92%
  MEAN CORPUSCULAR HEMOGLOBIN: 24.72 pg
  MEAN CORPUSCULAR HEMOGLOBIN CONCENTRATION: 39.43 G/DL
  MEAN CORPUSCULAR VOLUME: 62.68 fL
  MONOCYTE: 1.33%
  NEUTROPHIL: 6.5%
  NUCLEATED RED BLOOD CELLS: 0.17 /100WBC
  PLATELET COUNT: 1280.5 x10E3/uL
  ALANINE AMINOTRANSFERASE: 50 u/L
  ALBUMIN: 4.28 G/DL
  ALKALINE PHOSPHATASE: 380.17 u/L
  ASPARTATE AMINOTRANSFERASE: 82.67 u/L
  BLOOD UREA NITROGEN: 15.33 mg/dL
  CARBON DIOXIDE: 27.17 mmol/L
  CHLORIDE: 100.33 MEQ/L
  CHOLESTEROL: 60.67 mg/dL
  CREATINE PHOSPHOKINASE: 441.5 u/L
  CREATININE: 0.16 mg/dL
  LIPASE: 9.17 u/L
  POTASSIUM: 6.86 MEQ/L
  TOTAL BILIRUBIN: 0.2 mg/dL
  TOTAL PROTEIN: 6.12 G/DL
[3]
  ABSOLUTE BASOPHIL: 0 CELLS/uL
  ABSOLUTE EOSINOPHIL: 33.67 CELLS/uL
  ABSOLUTE LYMPHOCYTE: 13109.33 CELLS/uL
  ABSOLUTE MONOCYTE: 126 CELLS/uL
  ABSOLUTE SEGMENTED NEUTROPHIL: 1164.33 CELLS/uL
  BASOPHIL: 0%
  EOSINOPHIL: 0.33%
  ERYTHROCYTE COUNT: 5.44 x10E6/uL
  HEMATOCRIT: 33.17%
  LEUKOCYTE COUNT: 14.43 x10E3/uL
  LYMPHOCYTE: 91.33%
  MEAN CORPUSCULAR HEMOGLOBIN: 23.47 pg
  MEAN CORPUSCULAR HEMOGLOBIN CONCENTRATION: 38.53 G/DL
  MEAN CORPUSCULAR VOLUME: 60.97 fL
  MONOCYTE: 0.67%
  NEUTROPHIL: 7.67%
  NUCLEATED RED BLOOD CELLS: 0 /100WBC
  PLATELET COUNT: 1365.67 x10E3/uL
  ALANINE AMINOTRANSFERASE: 53 u/L
  ALBUMIN: 4.3 G/DL
  ALKALINE PHOSPHATASE: 371.67 u/L
  ASPARTATE AMINOTRANSFERASE: 93.67 u/L
  BLOOD UREA NITROGEN: 13.67 mg/dL
  CARBON DIOXIDE: 27.67 mmol/L
  CHLORIDE: 101 MEQ/L
  CHOLESTEROL: 71.33 mg/dL
  CREATINE PHOSPHOKINASE: 286.67 u/L
  CREATININE: 0.17 mg/dL
  LIPASE: 9 u/L
  POTASSIUM: 6.94 MEQ/L
  TOTAL BILIRUBIN: 0.27 mg/dL
  TOTAL PROTEIN: 5.97 G/DL
[4]
  ABSOLUTE BASOPHIL: 0 CELLS/uL
  ABSOLUTE EOSINOPHIL: 0 CELLS/uL
  ABSOLUTE LYMPHOCYTE: 17320.33 CELLS/uL
  ABSOLUTE MONOCYTE: 316 CELLS/uL
  ABSOLUTE SEGMENTED NEUTROPHIL: 1397 CELLS/uL
  BASOPHIL: 0%
  EOSINOPHIL: 0%
  ERYTHROCYTE COUNT: 5.46 x10E6/uL
  HEMATOCRIT: 34.3%
  LEUKOCYTE COUNT: 19.03 x10E3/uL
  LYMPHOCYTE: 91%
  MEAN CORPUSCULAR HEMOGLOBIN: 24.7 pg
  MEAN CORPUSCULAR HEMOGLOBIN CONCENTRATION: 39.23 G/DL
  MEAN CORPUSCULAR VOLUME: 62.87 fL
  MONOCYTE: 1.67%
  NEUTROPHIL: 7.33%
